# From patent publication US20120322843A1, “GENOTYPE SPECIFIC METHODS FOR TREATING HUMAN SUBJECTS USING 4-METHYLPYRAZOLE” (RAPTOR THERAPEUTICS INC., priority 2009, published 2012)
# Where “and” joins values, the source holds several entries; their conditions need not be identical. Equal values may be shown once.
# Tested on: human subjects with reduced or absent ALDH2 activity
# Assay: Blinded, intra-subject controlled, single dose study of oral 4-MP given before ethanol; serum acetaldehyde measured by HPLC/MS/MS and compared by ALDH2/ADH2 genotype
# Type: in vivo
# Experimental: A blinded, intra-subject controlled, single dose, dose escalation study of 4-MP for mitigation of acetaldehyde related toxicity in subjects with symptoms of inborn altered ethanol metabolism with concomitant ethanol exposure was undertaken.
# Twenty-four subjects (n=24) were randomly selected and orally administered 1 mg/kg, 3 mg/kg, or 5 mg/kg of 4-MP, followed 30 minutes later by an oral dose of 20% ethanol ([…]).
# Using the same protocol, wherein 4-MP was replaced with placebo, each of the twenty-four randomly selected subjects served as its own control.
# The twenty-four randomly selected subjects were then subjected to blood sampling, and the sampled blood analyzed for acetaldehyde levels at select time points following ethanol consumption.
# For acetaldehyde analysis, blood samples were prepared by dilution with an internal standard (acetaldehyde-d4), with derivatization of acetaldehyde with dinitrophenyl hydrazine in hydrochloric acid, liquid-liquid portioning and solvent exchange. The derivatization forms an acetaldehyde-dinitrophenyl hydrazine (DNPH) derivative which dramatically increases the boiling point of the molecule and thus its relative stability compared to the acetaldehyde itself (Nagy et al., Rapid Communications in Mass Spectrometry 2004, 18, 2473-2478). The derivatized analytes were separated using a Jones Chromatography (Grace-Vydac). 50 mm×2.1 mm, 3 μm column held in an oven set at 28° C. Two mobile phases were used in a gradient consisting of 30:70 acetonitrile:water versus 90:10 acetonitrile:water with 0.1% formic acid. The derivatized analyte was detected on a High Performance Liquid Chromatograph equipped with a Mass Spectrometer (HPLC/MS/MS). Quantitation was performed using a linear regression curve fit of impurities standards with 1/× weighting, prepared from dilutions of acetaldehyde in water. Samples and standards were injected at 2 μL.
# All […] subjects were then genotyped for ALDH2 and ADH2 at the Alcohol Research Center at Indiana University using (i) genomic DNA isolation and (ii) TaqMan assay for allelic discrimination. • i. Genomic DNA isolation: DNA was first isolated using the “Hot:SHOT” method for isolating PCR quality genomic DNA (Truett et al., Biotechniques 2000, 29(1), 52, 54). Briefly, blood blotted on filter paper (3 mm circle) was placed in the well of a 96-well plate and mixed with 75 μL 25 mM NaOH/0.3 mM EDTA solution and heated to 95° C. for 40 minutes, followed by neutralization with 75 μL 40 mM Tris-HCl ([…]) solution. 1-5 microliters were used for each PCR. • ii. TaqMan Assay for Allelic Discrimination: The allelic discrimination assay used a multiplexed (more than one primer/probe pair per reaction), end-point (data is collected at the end of the PCR process) assay. Each assay mix contained two different TaqMan probes (Applied BioSystems, Foster City, Calif.), labeled with VIC or FAM fluorescent reporter dye, which bound preferentially to one of the alleles. The genotype of each sample was determined by the fluorescence levels of the reporter dyes and was clustered on a graph with other samples of the same genotype. Each reaction contained 5 μL of 2×TaqMan Universal PCR Mastermix, No AmpErase UNG, 3.75 μL of water, 0.25 μL, of 40× Assay Mix, and 1 μL of DNA sample. Eight or eleven controls were included on each 96-well plate: two no template controls, two or three heterozygous samples, and two or three of each of the homozygous samples. Thermocycling was carried out in ND Research PTC-200 thermocyclers. The PCR products were then analyzed in an ABI PRISM® 7300 Sequence Detection System (SOS) instrument. SDS Software 1.3.1 converted the raw data to pure dye components and ploted the results of the allelic discrimination on a scatter plot of Allele X versus Allele Y (e.g. ADH2*1 versus ADH2*2); each genotype appeared on the graph as a cluster of points. […]
# [1] = Groups A and D (reduced ALDH2 activity, ADH2*1/ADH2*1 or ADH2*1/ADH2*2), n=6, 1 mg/kg 4-MP oral, then ethanol
# [2] = Groups A, B, D, F and G (reduced or absent ALDH2 activity), n=23, 1, 3 or 5 mg/kg 4-MP
# [3] = Groups F and G (reduced or absent ALDH2 activity, ADH2*2/ADH2*2), n=6, 1 mg/kg 4-MP oral, then ethanol
structure (smiles),measurement,setting,value
"Cc1cn[nH]c1 [4-MP, 4-methylpyrazole]",Acetaldehyde AUC0-8H mean,[1],162 ± 18.7 µg·h/mL and 162 µg·h/mL
same,Cmax mean (serum acetaldehyde),[1],41.3 µg/mL
same,Peak mean acetaldehyde concentration in the blood (FIG. 2),"Groups A and D, 1 mg/kg 4-MP",can be reduced
same,Reduction in Cmax mean relative to placebo,"Groups A and D, 1 mg/kg 4-MP",approximately 36%
same,Acetaldehyde AUC0-8H mean,[2],182 µg·h/mL
same,Cmax mean (serum acetaldehyde),[2],64.2 µg/mL
same,Peak mean acetaldehyde concentration in the blood (FIG. 3),"Groups F and G (ADH2*2/ADH2*2), 1 mg/kg 4-MP",not reduced
same,Acetaldehyde AUC0-8H mean,[3],221 µg·h/mL
same,Cmax mean (serum acetaldehyde),[3],89.2 µg/mL
same,Peak mean acetaldehyde concentration in the blood (FIG. 4),"all subjects with reduced or absent ALDH2 activity, 1, 3 or 5 mg/kg 4-MP",not reduced
